From ChEMBL document CHEMBL5303304, “EUbOPEN Chemogenomics Library - IncuCyte” (2023)

Tests used:
Format in all cases: toxicity, cell-based
HEK-293T = assay: Incucyte cell viability with HEK293T; settings: human, 10 µM, compound concentration 10 uM
U2OS = assay: Incucyte cell viability with U2OS; settings: human, 10 µM, compound concentration 10 uM
Fibroblast = assay: Incucyte cell viability with human fibroblast; settings: 10 µM, compound concentration 10 uM
Also: unitless GR value; below 1 slowed growth and below 0 cell loss.

| Structure (SMILES) | Growth Rate (HEK-293T; 0 h, replicate number 1) | Growth Rate (HEK-293T; 6 h, replicate number 2) | Growth Rate (HEK-293T; 12 h, replicate number 2) | Growth Rate (HEK-293T; 18 h, replicate number 1) | Growth Rate (HEK-293T; 18 h, replicate number 2) | Growth Rate (HEK-293T; 24 h, replicate number 1) | Growth Rate (HEK-293T; 24 h, replicate number 2) | Growth Rate (U2OS; 6 h, replicate number 1) | Growth Rate (U2OS; 18 h, replicate number 2) | Growth Rate (HEK-293T; 0 h, replicate number 2) | Growth Rate (HEK-293T; 6 h, replicate number 1) | Growth Rate (HEK-293T; 12 h, replicate number 1) | Growth Rate (U2OS; 12 h, replicate number 1) | Growth Rate (U2OS; 18 h, replicate number 1) | Growth Rate (U2OS; 24 h, replicate number 1) | Growth Rate (U2OS; 24 h, replicate number 2) | Growth Rate (Fibroblast; 6 h, replicate number 1) | Growth Rate (Fibroblast; 6 h, replicate number 2) | Growth Rate (Fibroblast; 12 h, replicate number 2) | Growth Rate (Fibroblast; 18 h, replicate number 2) | further results |
| --- | --- | --- | --- | --- | --- | --- | --- | --- | --- | --- | --- | --- | --- | --- | --- | --- | --- | --- | --- | --- | --- |
| O=c1cc(-c2cc(F)c(Cl)nc2Cl)[nH]c2c(-c3ccccc3)c(C(F)(F)F)nn12 | 0.89 | 0.52 | 0.74 | 0.93 | 0.98 | 0.8 | 0.94 | 0.78 | -0.41 |  |  |  |  |  |  |  |  |  |  |  | Growth Rate (Fibroblast; 0 h, replicate number 1): -0.22; Growth Rate (Fibroblast; 12 h, replicate number 1): -0.36; Growth Rate (Fibroblast; 18 h, replicate number 1): 0.57; Growth Rate (Fibroblast; 24 h, replicate number 1): 0.39; Growth Rate (Fibroblast; 24 h, replicate number 2): 1 |
| CCCCCNC(=O)N1CCC(CN(Cc2ccc(Cl)cc2)Cc2ccc([N+](=O)[O-])s2)C1 (stereo unspecified) [SR9011] |  | 0.86 | 0.62 | 0.51 | 0.59 | 0.54 | 0.49 | 0.88 | 0.94 | -0.74 | 0.47 | 0.42 | 0.81 | 0.9 | 0.85 | 0.83 | 0.11 | -0.29 | 0.55 | 0.66 | Growth Rate (U2OS; 0 h, replicate number 1): 0.35; Growth Rate (U2OS; 6 h, replicate number 2): 0.94; Growth Rate (U2OS; 12 h, replicate number 2): 0.86; Growth Rate (Fibroblast; 12 h, replicate number 1): 0.48; Growth Rate (Fibroblast; 18 h, replicate number 1): 0.55; Growth Rate (Fibroblast; 24 h, replicate number 1): 0.54; Growth Rate (Fibroblast; 24 h, replicate number 2): 0.64 |
| Cl.Cl.O=[N+]([O-])c1ccc(CN2CCOCCOCCN(Cc3ccc([N+](=O)[O-])cc3)CCOCC2)cc1 |  | -0.29 | 0.2 | 0.13 | 0.39 | 0.2 | 0.52 | -0.05 | 0.56 |  | -0.5 | 0.04 | 0.28 | 0.69 | 0.67 | 0.76 |  | -0.71 | 0.3 | 0.63 | Growth Rate (U2OS; 6 h, replicate number 2): 0.19; Growth Rate (U2OS; 12 h, replicate number 2): 0.21; Growth Rate (Fibroblast; 0 h, replicate number 1): 0.74; Growth Rate (Fibroblast; 12 h, replicate number 1): -0.95; Growth Rate (Fibroblast; 18 h, replicate number 1): -0.4; Growth Rate (Fibroblast; 24 h, replicate number 1): -0.06; Growth Rate (Fibroblast; 24 h, replicate number 2): 0.84 |
| C=CC[C@@H]1/C=C(\C)C[C@H](C)C[C@H](OC)[C@H]2O[C@@](O)(C(=O)C(=O)N3CCCC[C@H]3C(=O)O[C@H](/C(C)=C/[C@@H]3CC[C@@H](O)[C@H](OC)C3)[C@H](C)[C@@H](O)CC1=O)[C@H](C)C[C@@H]2OC.O [TACROLIMUS] |  | 0.77 | 0.99 | 0.78 | 0.82 | 0.87 | 0.99 | 0.95 | 0.87 | -0.12 | -0.24 | 0.41 | 0.75 | 0.81 |  | 0.85 |  | -0.26 | 0.85 |  | Growth Rate (U2OS; 0 h, replicate number 1): 0.59; Growth Rate (U2OS; 0 h, replicate number 2): -1; Growth Rate (U2OS; 6 h, replicate number 2): 0.5; Growth Rate (U2OS; 12 h, replicate number 2): 0.7; Growth Rate (Fibroblast; 0 h, replicate number 2): -0.85; Growth Rate (Fibroblast; 18 h, replicate number 1): 0.96 |
| O=C1Nc2nc(-c3c(O)cccc3OCC3CC3)cc([C@@H]3CCCNC3)c2CO1 | 0.88 | 0.83 | 0.47 | 0.78 |  | 0.93 |  |  | 0.79 | -0.36 | 0.72 | 0.62 |  |  | 0.83 | 0.98 |  |  |  |  | Growth Rate (U2OS; 0 h, replicate number 2): -0.52; Growth Rate (U2OS; 6 h, replicate number 2): 0.44; Growth Rate (U2OS; 12 h, replicate number 2): 0.47; Growth Rate (Fibroblast; 0 h, replicate number 2): -0.79 |
| CCCOc1cnc(CN/C=C2\C(=O)NC(=O)c3ccc(I)cc32)cc1O | 0.51 | -0.9 | -0.74 | -0.63 | -0.6 | -0.58 | -0.47 |  | 0.38 |  | -0.81 | -0.75 | 0.89 | 0.45 | 0.07 | 0 | -0.88 | -0.38 | -0.06 | 0.1 | Growth Rate (U2OS; 0 h, replicate number 2): -1; Growth Rate (U2OS; 12 h, replicate number 2): 0.75; Growth Rate (Fibroblast; 0 h, replicate number 1): 0.29; Growth Rate (Fibroblast; 12 h, replicate number 1): -0.79; Growth Rate (Fibroblast; 24 h, replicate number 1): 0.11; Growth Rate (Fibroblast; 24 h, replicate number 2): 0.16 |
| Cl.Clc1ccc(OC[C@H]2CCN2)cn1 | 0.45 | 0.93 | 0.94 | 0.8 |  | 0.83 |  | -0.1 | 0.97 |  | 0.64 |  | 0.58 | 0.72 | 0.76 | 0.97 | -0.66 | -0.05 | 0.34 | 0.83 | Growth Rate (U2OS; 0 h, replicate number 1): -0.28; Growth Rate (U2OS; 6 h, replicate number 2): 0.54 |
| COc1ccc(-c2c(-c3ccccc3)oc3ncnc(O[C@H](C)CCCCC(=O)O)c23)cc1 | 0.1 |  |  |  |  |  |  |  |  | 0.14 |  |  | 0.94 |  |  |  | 0.79 | -0.43 | 0.48 | 0.98 | Growth Rate (Fibroblast; 0 h, replicate number 1): -1; Growth Rate (Fibroblast; 24 h, replicate number 1): 0.88 |
| Cn1cncc1-c1cn(-c2cccc(C(=O)Nc3cccc(C(F)(F)F)c3)c2)nn1 |  | -0.41 | 0.03 | 0.06 | 0.14 | 0.24 | 0.3 | 0.83 | 0.89 |  | -0.32 | -0.13 |  |  | 0.95 |  |  | 0.53 | 0.77 | 0.64 | Growth Rate (U2OS; 0 h, replicate number 2): 0.55; Growth Rate (U2OS; 12 h, replicate number 2): 0.86; Growth Rate (Fibroblast; 12 h, replicate number 1): 0.87; Growth Rate (Fibroblast; 18 h, replicate number 1): 0.87; Growth Rate (Fibroblast; 24 h, replicate number 1): 0.48; Growth Rate (Fibroblast; 24 h, replicate number 2): 0.87 |
| NC(=O)c1cc(-c2ccnc(NC3CCCCC3)c2)nc(N2CCNCC2)c1 | -0.55 |  | 0.31 | 0.8 | 0.26 |  | 0.44 |  | 0.9 | -0.65 |  | 0.54 |  | 0.84 | 0.61 | 0.72 | 0.63 | -0.77 | 0.39 | 0.65 | Growth Rate (Fibroblast; 0 h, replicate number 1): -0.81; Growth Rate (Fibroblast; 0 h, replicate number 2): 0.79; Growth Rate (Fibroblast; 12 h, replicate number 1): -1; Growth Rate (Fibroblast; 24 h, replicate number 2): 0.36 |
| CC(=O)Nc1cccc(-n2c(=O)n(C3CC3)c(=O)c3c(Nc4ccc(I)cc4F)n(C)c(=O)c(C)c32)c1 [TRAMETINIB] | 0.04 | 0.92 | 0.78 |  |  |  |  | 0.99 | 0.85 | -0.7 |  |  | 0.58 | 0.53 | 0.9 | 0.74 | 0.65 |  |  |  | Growth Rate (U2OS; 0 h, replicate number 1): 0.34; Growth Rate (U2OS; 0 h, replicate number 2): 0.61; Growth Rate (U2OS; 6 h, replicate number 2): 0.66; Growth Rate (U2OS; 12 h, replicate number 2): 0.91 |
| CCO[C@@H](Cc1ccc(OCCc2ccc(OS(C)(=O)=O)cc2)cc1)C(=O)O [TESAGLITAZAR] | 0.24 | 0.96 | 0.68 |  | 0.85 |  | 0.7 |  |  | -0.46 | 1 |  |  | 0.98 | 0.87 |  | 0.95 | 0.72 | 0.56 | 0.87 | Growth Rate (U2OS; 0 h, replicate number 2): 0.8; Growth Rate (U2OS; 6 h, replicate number 2): 0.99; Growth Rate (Fibroblast; 0 h, replicate number 1): 0.92; Growth Rate (Fibroblast; 0 h, replicate number 2): 0.24; Growth Rate (Fibroblast; 18 h, replicate number 1): 0.64; Growth Rate (Fibroblast; 24 h, replicate number 1): 0.99 |
| Cn1c(=O)n(CCCO)c(=O)c2c1nc(Oc1cccc(OC(F)(F)F)c1)n2Cc1ccc(Cl)cc1 [ZERENCOTREP] | 0.5 | 0.64 |  | 0.98 |  |  |  |  |  | 0.33 | 0.54 | 0.92 | 0.8 | 0.88 | 0.94 |  | -0.36 | -0.98 | 0.88 | 0.6 | Growth Rate (U2OS; 0 h, replicate number 2): -0.21; Growth Rate (Fibroblast; 12 h, replicate number 1): -1; Growth Rate (Fibroblast; 24 h, replicate number 2): 0.54 |
